How the values were obtained:
[1] = biological target: T1, TRH receptor binding sites in pituitary (Rattus norvegicus, UniProt Q01717); experiment: Receptor binding assay, [3H][3-Me-His2]-TRH competition, anterior pituitary homogenate; parameters: species or system rat (Sprague-Dawley); settings: rat anterior pituitary membranes; [3H][3-Me-His2]-TRH 3 to 5 nM; 4-6 °C, 2.5 hours; mean ± S.E.M.
T1 construct: from tissue; host or cells: rat anterior pituitary membrane pellet (homogenate, 39000 g)
T1 sequence (Q01717 1-412): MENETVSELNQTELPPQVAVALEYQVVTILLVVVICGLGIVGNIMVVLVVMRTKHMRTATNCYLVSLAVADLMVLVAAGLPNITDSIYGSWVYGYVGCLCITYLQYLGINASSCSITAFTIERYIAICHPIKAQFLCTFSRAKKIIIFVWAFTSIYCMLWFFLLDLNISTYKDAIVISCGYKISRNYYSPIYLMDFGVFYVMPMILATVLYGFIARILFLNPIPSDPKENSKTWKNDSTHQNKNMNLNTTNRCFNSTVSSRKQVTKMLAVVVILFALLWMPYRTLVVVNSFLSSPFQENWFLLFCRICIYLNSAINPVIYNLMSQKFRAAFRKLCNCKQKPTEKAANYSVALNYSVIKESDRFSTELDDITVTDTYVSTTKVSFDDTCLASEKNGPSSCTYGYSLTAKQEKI
Protocol: (§1) Adult, male Sprague-Dawley rats were obtained from Taconic Farms (Germantown, N.Y.) and housed at controlled temperature (22° C.) and light cycle (12/12 h) with free access to food and water. On the experimental day, six to eight animals were rapidly decapitated and their brains quickly removed and placed on a cold plate. Anterior pituitary and cortex tissue samples were obtained and processed immediately for receptor-binding experiments.
(§2) All steps of the tissue preparation and binding assays were done on ice. After weighing, pooled tissue samples were homogenized in 25 ml of ice-cold sodium phosphate buffer (0.1M, pH 7.4-7.5), using a Brinkmann Polytron homogenizer (setting 7, 15-20 s). The homogenates were then centrifuged in a refrigerated Sorvall RC5B centrifuge at 39000 g for 30 minutes. The supernatants were discharged and the pellets were resuspended to a concentration of 50 (pituitary) or 100 mg wet weight/ml (ww/ml, cortex) in ice-cold sodium phosphate buffer containing 177 μM Bacitracin.
(§3) Competition experiments were performed by incubating mixtures of tissue resuspensions, [3H][3-Me-His2]-TRH (87 Ci/mmol, Amersham) in 3 to 5 nM final concentration and increasing amounts of analog in a total volume of 100 μl/vial at 4° to 6° C. for 2.5 hours. In order to limit loss of peptides by adherence to glass, 0.05% bovine serum albumin was included in the assays. Nonspecific binding was determined in the presence of 10 μM TRH. The incubation period was terminated by vacuum filtration of the incubation mixture through Whatman GF/B glass filters, using a 48-well cell harvester (Brandel Inc., Gaithersburg, Md.), followed by four rinses with 4 ml each of ice-cold 0.9% NaCl solution. Filters were then placed in scintillation vials and kept overnight in 5 ml of watermiscible scintillation fluid (Beckman Ready-SolvTM HP) each. Bound radioactivity was measured after thorough shaking of the vials on the following day in an LKB 1218 Rackbeta liquid scintillation counter with automatic correction for tritium quenching. Specific binding was calculated as total binding minus nonspecific binding. Inhibition constants, Ki, were determined according to Cheng and Prusoff (1973) using the radioligand-binding analysis software LIGAND (Elsevier-Biosoft; Munson and Rodbard, 1980). Unless otherwise stated, data in tables and figures represent mean values±S.E.M. (standard error of the mean of separate experiments done in duplicate).

[2] = test system: TSH release; settings: relative to TRH; cited from earlier work
[3] = biological target: TRH receptor binding sites in cortex; experiment: Receptor binding assay, [3H][3-Me-His2]-TRH competition, cortex homogenate; parameters: species or system rat (Sprague-Dawley); settings: rat cortex membranes; [3H][3-Me-His2]-TRH 3 to 5 nM; 4-6 °C, 2.5 hours; mean ± S.E.M.
Protocol: as §1, §2
as §3, with “The incubation period was terminated by vacuum filtration of the incubation mixture through Whatman GF/B glass filters, using a 48-well cell harvester (Brandel Inc., Gaithersburg, Md.), followed by four rinses with 4 ml each of ice-cold 0.9% NaCl solution.” left out, “Unless otherwise stated, data in tables and figures represent mean values±S.E.M. (standard error of the mean of separate experiments done in duplicate).” left out

[4] = test system: TRH receptor; settings: compared with natural TRH; reported by Kruszynski; cited from earlier work
[5] = test system: TSH release; settings: compared with natural TRH; reported by Kruszynski; cited from earlier work

SMILES	Ki [1]	potency in stimulating TSH release compared with TRH [2]	Ki [3]	TRH receptor binding affinity [4]	TSH releasing activity [5]
NC(=S)[C@@H]1CCCN1C(=O)[C@H](Cc1c[nH]cn1)NC(=O)[C@@H]1CCC(=S)N1 [Example 2, L-thiopyroglutamyl-L-histidyl-L-proline thioamide]	85.4 ± 17.8 nM	more potent than TRH	86.1 ± 6.3 nM		
NC(=S)[C@@H]1CCCN1C(=O)[C@H](Cc1c[nH]cn1)NC(=O)[C@@H]1CCC(=O)N1 [Example 3, L-pyroglutamyl-L-histidyl-L-proline thioamide]	8 ± 0.2 nM		93.1 ± 16.5 nM	matching that of natural TRH	matching that of natural TRH
NC(=O)[C@@H]1CCCN1C(=O)[C@H](Cc1c[nH]cn1)NC(=O)[C@@H]1CCC(=S)N1 [Example 1, L-thiopyroglutamyl-L-histidyl-L-oroline amide]	31.9 ± 2.9 nM				
NC(=O)[C@@H]1CCCN1C(=O)[C@H](Cc1c[nH]cn1)NC(=O)[C@@H]1CCC(=O)N1 [TRH, L-pyroglutamyl-L-histidyl-L-proline-amide, reference compound]	24.1 ± 14.2 nM		26.1 ± 4.5 nM		
